As a reminder, the melting point is the temperature, or range, at which the solid turns liquid.

Take `COc1cccc2c1S(=O)(=O)c1ccccc1C2(CCOS(C)(=O)=O)CCOS(C)(=O)=O`: the melting point lay in the range of 200 to 202 °C. Compound `O=c1ccn(-c2ccc(OC(F)F)cc2)nc1-c1ccnn1-c1ccccc1` showed a melting point of 175 to 176 °C. The compound `CCOC(=O)C(C#N)=Cc1cc(OC)c(C(=O)OC)c(OC)c1` gave a melting point of 142 to 144 °C. `CC(=O)Nc1ccc(S(F)(F)(F)(F)F)cc1[N+](=O)[O-]` displayed a melting point of 135 to 138 °C. `COc1ccc(-c2cc(O)nc(C)n2)cc1` had a melting point of 270 to 272 °C.

Compound `O=C1CCC(=O)N1CCSc1ccc(O)cc1` showed a melting point of 114 to 122 °C. The result for `O=C(Nc1ccc(F)cc1)c1ccccc1SSc1ccccc1C(=O)Nc1ccc(F)cc1` reads 242 to 244 °C. For the compound `O=C1C(CCO)Oc2ccccc2N1Cc1ccccc1` (configuration not stated), the melting point is 83 to 85.5 °C. For the compound `Cc1ccc(-c2cccn2-c2ccc(S(N)(=O)=O)cc2)cc1`, the melting point was in the range of 183 to 184 °C. Consider `CCC(=O)N(CC)c1cccc(-c2ccc3nnc(N)n3n2)c1`, for which the melting point lay in the range of 199 to 200 °C.

Compound `O=C(c1ccc(Cl)c(Cl)c1)N(CCCCn1ccnc1)C1=Nc2cccc3cccc1c23` registered a melting point of 138 to 141 °C. On to `COc1cccc(Cc2ccc(-c3c[nH]nc3N)cc2)c1`, for which the melting point is 118 to 120 °C. Compound `COc1ccc2c(c1)CCC1C2CCC2(C)C(=NN(C)C)CCC12` (configuration not stated) returned a melting point of 98 to 100 °C. The compound `CN1CC(=O)N(SC(Cl)(Cl)Cl)C1=O` returned a melting point of 110 to 112 °C. The result for `Cc1nn2c(c1Cl)N=NC2CCNC(=O)c1ccccc1C(=O)O` (configuration not stated) reads 162 to 166 °C; that for `Oc1ccc(Nc2nnc(Cc3ccncc3)c3ccccc23)cc1`, 239 to 241 °C; that for `CN1N=CC(=CNCc2ccc(F)cc2F)C1=O`, 181 to 182 °C. `O=C1c2ccccc2C(=O)N1C1CCN(CCCc2c[nH]c3ccccc23)CC1` yielded a melting point of 187 to 190 °C. The result for `CC1=Cc2cc3c(cc2C(c2ccc([N+](=O)[O-])c(C)c2)=NN1C(=O)NC1CC1)OCO3` reads 198 to 202 °C. Compound `CCCNCc1ccc(S(=O)(=O)c2ccc(S(N)(=O)=O)s2)cc1` showed a melting point of 151 to 153 °C. With `CC(=O)OCc1c(Br)cccc1[N+](=O)[O-]` the figure was 36 to 37 °C; with `NC(=O)c1cnc2c(cc([N+](=O)[O-])c3nncc32)c(-c2ccccc2Cl)n1`, > 340 °C. `CS(=O)(=O)N1CCOc2ccc(C3=NNC(=O)CC3)cc21` showed a melting point of 245 °C. Compound `CCCCCCCCCCCCCCCNC(=O)OCCOCCOC(=O)NCc1ccccn1` yielded a melting point of 86 to 87 °C.

`O=C(NCc1cccnc1)N(c1ccccc1)c1ccccc1` returned a melting point of 143 °C. With `Cn1cc(-c2cccc(C(F)(F)F)c2)c(=O)o1` the figure was 132 to 134 °C; with `O=S1(=O)c2cccc3cccc(c23)N1CCCN1CCN(c2ccc(O)cc2)CC1`, 185 °C. On to `Cc1ccc(NC(=O)C(C)(C)C)c(-c2cncc(Br)n2)c1`, for which the melting point lay in the range of 74 to 76 °C. For the compound `O=[N+]([O-])c1ccc(C2OCc3ccc(CO)cc3CO2)cc1` (configuration not stated), the melting point came out at 146 °C.

On to `COc1cc(OC)c(-c2nccs2)cc1/C=C/C(=O)c1ccc(C(=O)O)cc1`, for which the melting point is > 260 °C. `Cc1cc(=O)n(C)c2[nH]n(-c3ccccc3)c(=O)c12`: the melting point was in the range of 179 to 181 °C. Compound `Brc1ccc(-c2cc3cc(-c4ccccc4)ccc3o2)cc1` registered a melting point of 90 to 92 °C. In turn, `c1cc2c3c(ccc2[nH]1)NCC3` yielded a melting point of 183 to 186 °C. The compound `CCCC[C@H](NC(=O)[C@H](CC(C)C)NC(=O)OCc1ccc(F)cc1)C(=O)CSCc1ccco1` displayed a melting point of 67 to 68 °C. Turning to `Cc1oc2c(OC(C)C(N)=NO)cccc2c1C` (configuration not stated), the melting point is 147 to 148 °C.

Turning to `CSc1nn(C(=O)NC(C)c2ccc(Cl)c(Cl)c2)c(=O)n1N` (configuration not stated), the melting point was 132 °C. With `Cc1nc2n(c1CO)-c1ccccc1N(C)c1ccccc1-2`, the melting point is 187 to 190 °C. `O=Cc1ccc(OCc2cn3c(Cl)cccc3n2)cc1` displayed a melting point of 126 to 130 °C. Turning to `CSCCCn1c(C)nc2c(N)nc3ccccc3c21`, the melting point was in the range of 199 to 202 °C.

Consider `CC(=O)c1ccccc1-c1cccc(C(=O)O)c1`, for which the melting point turned out to be 143 °C. With `O=C(O)c1cc(NC(=O)C(F)(F)F)c(C(=O)c2ccccc2)c(OCc2ccccc2)c1` the figure was 213 °C. The result for `CNC(=C[N+](=O)[O-])NOCCCc1csc(NC(=N)N)n1` reads 144 to 146 °C; that for `O=NCNC1=Nc2ccc(Cl)cc2N(c2ccccc2)C(=O)C1`, 121 to 124 °C; that for `O=C1NC(=O)C2(N1)C(=O)N(Cc1ccc(Cl)c(Cl)c1)c1ccc(Cl)cc12` (configuration not stated), 257 to 259 °C. The result for `Cc1nc(C#N)ccc1N` reads 192 to 196 °C; that for `COc1nc(C)c(N)cc1C`, 39.8 to 41 °C; that for `CCOC(=O)C(=O)c1csc(NC(=O)Nc2ccc(OC)cc2)n1`, 193 to 196 °C. Take `COC(=O)c1ccc2c(c1)OCC(=O)N2`: the melting point lay within 258 to 260 °C.

`Oc1c(Br)c(Br)c(Cl)c(Br)c1Br` registered a melting point of 210 to 212 °C. Consider `COc1cc(OCCN2CCOCC2)c(C=CC(=O)c2ccc(S(N)(=O)=O)cc2)cc1-c1cccs1`, for which the melting point lay within 186 to 188 °C. `C[C@@]1(c2ccccc2)OC(c2ccccc2)=NC[C@H]1O` (racemic) showed a melting point of 130 °C. `Cc1cc(C)c(-n2ccc3c(N)nn(C)c(=O)c32)c(C)c1` came in with a melting point of 254 to 256 °C. Turning to `CCCC(=O)Nc1n[nH]c2cc(C(F)(F)F)ccc12`, the melting point was 200 °C. With `CC(C)Oc1c(-c2ccc(S(C)(=O)=O)cc2)cnn(CC(F)(F)F)c1=O` the figure was 152 to 153 °C; with `CCN1CCc2ccc(Nc3ncc(Cl)c(Nc4ccccc4S(=O)(=O)NC)n3)cc2CC1`, 175 °C; with `N#Cc1ccc(C2CCN(Cc3ccccc3)C2)cc1` (configuration not stated), 78 to 79 °C.

In turn, `NC(=S)NN=C(CCCCl)c1ccccc1` displayed a melting point of 128 to 130 °C. `COc1ccc(-c2ccc(CCC#N)cc2)cc1` yielded a melting point of 105 to 107 °C. As for `CCOC(=O)c1c(SCc2ccc(OC)cc2)c(CC)c2cc(Cl)ccn2c1=O`, the melting point lay within 159 to 160 °C. In turn, `CCOCCOc1c(C)cc(C#CC2(O)CN3CCC2CC3)cc1C` (configuration not stated) yielded a melting point of 113 to 115 °C.

Consider `CCOC(=O)c1cc(=O)c2c(OCC(O)COc3ccc(Cl)cc3Cl)cccc2o1` (configuration not stated), for which the melting point lay within 98 to 100 °C.

As for `COc1ccc(-c2c(O)c3ccc(Cl)cc3[nH]c2=O)cc1`, the melting point was > 350 °C. `O=C(CCC(=O)N1CCC[C@H]1C(=O)O)c1ccc(Cl)cc1` yielded a melting point of 137 to 138 °C. Regarding `Clc1ccc2c(c1)N=C(NCCCn1ccnc1)c1ccccc1N2`, the melting point fell in the range of 228 to 230 °C. As for `Cc1oc(-c2ccccc2)nc1COc1ccc(CCCCc2nnn[nH]2)cn1`, the melting point lay in the range of 104 to 105 °C.

With `O=C(Nc1ccccn1)c1cn(-c2ccccc2)c2ccccc2c1=O`, the melting point fell in the range of 238 to 240 °C. In the case of `CCOC(=O)C1=C2NCCN2CCC1`, the melting point was found to be 89 °C. `CCN1C(=O)CCCc2cc(Nc3ncc(Cl)c(Nc4ccccc4C(=O)NC)n3)c(OC)cc21` came in with a melting point of 232 to 233 °C.

Turning to `CCOC(=O)NN=Cc1c[nH]c(COC)n1`, the melting point fell in the range of 186 to 190 °C. Regarding `FC(F)(F)c1ccc2c(c1)SSSSS2`, the melting point fell in the range of 44 to 50 °C. `CCC[C@H](NC(=O)CNC)C(=O)N[C@@H](CCCNC(=N)N)C(=O)N[C@@H](C)P(=O)(O)O`: the melting point is 200 °C. `Cc1c(C(=O)c2ccccc2Cl)c(NC(=O)CI)cn1C` registered a melting point of 155 to 157 °C. The compound `COCC(Cl)c1nc2c(C(F)(F)F)cccc2c(O)c1C(=O)Nc1nccs1` (configuration not stated) returned a melting point of 186 °C. Compound `O=C(O)C(=O)c1ccccc1Nc1c(Cl)cccc1Cl` displayed a melting point of 159 to 160 °C. For `N#Cc1cc(O)cc(F)c1`, the melting point is 138 to 139 °C.

`CCOCc1nc2c(N)nc3cc(Br)ccc3c2n1CC1CCN(S(C)(=O)=O)CC1` displayed a melting point of 233 to 234 °C. Compound `COC(CN(C(=O)C(C)C)C(C(=O)O)c1ccccc1)OC` (configuration not stated) came in with a melting point of 147 to 149 °C.

As to `CNc1nc(NCc2ccc(NC(=O)c3ccc(Cl)nc3)cc2)c2c(C)cccc2n1`, the melting point fell in the range of 233 to 236 °C. Compound `CC(C)(C)OC(=O)NCCc1cccc(OCCC2Oc3ccccc3N(Cc3ccccc3Cl)C2=O)c1` (configuration not stated) registered a melting point of 61 to 65 °C. For `COCCOC(=O)Nc1cccc(C)c1CNc1cccn2c(C=O)c(C)nc12`, the melting point lay within 153 to 155 °C. The compound `COc1nc2ccc(Br)cc2cc1C(Br)c1ccccc1` (configuration not stated) yielded a melting point of 85 to 86 °C. For the compound `COC(=O)NC(=O)c1ccc(C=NO)cc1C`, the melting point lay within 141 to 143 °C. Regarding `OC1Cc2ccccc2Sc2cc(F)c(Cl)cc21` (configuration not stated), the melting point fell in the range of 69 to 71 °C.

`Cc1ccc(-c2c(C(=O)NCc3cc(C(F)(F)F)cc(C(F)(F)F)c3)n(CCO)c(=O)c3ncccc23)cc1` showed a melting point of 123 to 125 °C. With `O=C1CC2(C(=O)N1)C(=O)N(Cc1ccc(Br)cc1)c1ccccc12` (configuration not stated), the melting point was 218 to 220 °C. The compound `O=c1c(Oc2ccc(-c3ccncc3)cc2)c(-n2ccnc2)cnn1-c1ccc(Cl)cc1` displayed a melting point of 188 °C. With `COc1cc(Nc2nccc(C(=O)Nc3ccccc3)n2)cc(OC)c1OC` the figure was 158 to 159 °C; with `CC(CF)(CF)C(=O)C(Oc1ccc(Cl)cc1)n1cnnc1` (configuration not stated), 119 to 122 °C.

`CC1(C2CCCC2)Cc2cc(OCCBr)c(Cl)c(Cl)c2C1=O` (configuration not stated) gave a melting point of 124 to 125 °C. In turn, `O=C(CNc1c(C(=O)O)[nH]c2cc(Cl)cc(Cl)c12)c1ccccc1Cc1ccccc1` had a melting point of 234 to 235 °C. For the compound `Cn1c(=O)c(-c2ccc(Cl)cc2Cl)cc2c3cc(-c4c[nH]nc4N)ccc3n(C)c21`, the melting point is 240 to 245 °C. With `CCC(=O)C1c2cccc(O)c2C(=O)c2c(O)cccc21`, the melting point is 115 °C.

The record behind these values is a melting point compilation (Tetko et al.; mined from patent text by program, amines drawn as free bases though some values may be those of a salt).
